EPA's ToxValDB 9.5 (doi:10.2903/j.efsa.2007.107r)

How the values were obtained:
Apis mellifera = settings: acute; oral; unspecified; mortality
Daphnia magna = settings: chronic/long-term; duration: 21 days
Oryctolagus sp. = settings: developmental; development
Tagia sp. = settings: acute; duration: 14 days; mortality
Typhlodromus pyri = assay: LR50; higher = less toxic; settings: acute; duration: 7 days; reproduction

CC(C)OC(=O)N[C@H](C(=O)N[C@H](C)c1nc2ccc(F)cc2s1)C(C)C [Benthiavalicarb-isopropyl]
LD50 (Apis mellifera): > 100 µg/piece
LC50 (Colinus virginianus; acute, oral, diet, mortality): > 937 mg/kg-day
LD50 (Colinus virginianus; acute, oral, mortality): > 2000 mg/kg
NOEL (Colinus virginianus; reproduction developmental, duration: 24 weeks): 105 mg/kg-day
NOEC (Daphnia magna): 3 mg/L
LC50 (Oncorhynchus mykiss; acute, duration: 96 hours, mortality): > 10 mg/L
NOEC (Oncorhynchus mykiss; chronic/long-term, duration: 28 days): 1 mg/L
NOAEL (Oryctolagus sp.): 20 mg/kg-day
LD50 (Rattus norvegicus; acute, oral, mortality): > 5000 mg/kg
NOAEL (Rattus norvegicus; chronic, duration: 2 years, clinical chemistry): 9.9 mg/kg-day
NOAEL (Rattus norvegicus; reproduction developmental, organ weight): 10 mg/kg-day
LC50 (Tagia sp.): > 500 mg/kg
LR50 (Typhlodromus pyri): 290 g/ha
